Results reported in publication PMC12858634, “Functional characterisation of Target of Rapamycin (TOR) signalling in Physcomitrella” (Plant Cell Reports, 2026).

Target: T1, PpFKBP12 (Physcomitrium patens, UniProt A0A2K1L9Z1, M56K/G57Q/R58E)
T1 construct: gene LOC112274967
Experiment: yeast fkbp12 deletion complementation, growth spot assay
Type: cell-based
Conditions: rapamycin 100 or 200 nM, galactose medium, 30 °C, 5 days; acts as FKBP12-rapamycin complex on host yeast TOR

T1 sequence (A0A2K1L9Z1 entry or part of it M56K/G57Q/R58E): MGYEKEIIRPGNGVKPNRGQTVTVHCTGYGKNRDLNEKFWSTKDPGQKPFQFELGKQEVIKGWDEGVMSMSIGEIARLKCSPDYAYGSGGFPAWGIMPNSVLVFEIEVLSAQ

Compound: CO[C@H]1C[C@@H]2CC[C@@H](C)[C@@](O)(O2)C(=O)C(=O)N2CCCC[C@H]2C(=O)O[C@H]([C@H](C)C[C@@H]2CC[C@@H](O)[C@H](OC)C2)CC(=O)[C@H](C)/C=C(\C)[C@@H](O)[C@@H](OC)C(=O)[C@H](C)C[C@H](C)/C=C/C=C/C=C/1C [rapamycin]
- yeast fkbp12 deletion complementation, growth spot assay: all but PpFKBP12^W40D complemented the rapamycin-resistant phenotype of fkbp12Δ cells
